From the CheMixHub viscosity set
± gives the uncertainty stated by the source.

Experiment: xn = mol fraction of the nth substance listed

CCCCn1cc[n+](C)c1.F[B-](F)(F)F + CC#N
Settings	viscosity [mPa·s]
298.15 K, 101 kPa, x2 = 0.0956	79.7 ± 16

O=S1(=O)CCCC1 + CC(C)CO
viscosity [mPa·s], 101 kPa
Settings	x1 = 0.0598	x1 = 0.1852	x1 = 0.259	x1 = 0.3891	x1 = 0.5066	x1 = 0.5903	x1 = 0.7089	x1 = 0.7888	x1 = 0.9464
303.15 K	2.606 ± 0.03	2.541 ± 0.028	2.648 ± 0.029	2.978 ± 0.034	3.416 ± 0.04	3.853 ± 0.046	4.763 ± 0.059	5.677 ± 0.066	6.708 ± 0.081
308.15 K	2.261 ± 0.024	2.222 ± 0.024	2.319 ± 0.025	2.611 ± 0.03	3.017 ± 0.035	3.414 ± 0.04	4.229 ± 0.051	5.037 ± 0.062	7.667 ± 0.089
313.15 K	1.971 ± 0.02	1.954 ± 0.021	2.045 ± 0.022	2.309 ± 0.025	2.681 ± 0.031	3.043 ± 0.035	3.778 ± 0.045	4.493 ± 0.053	6.786 ± 0.084

Cc1ccc(O)cc1 + CCCC(=O)O
viscosity [mPa·s], 101 kPa
Settings	x2 = 0.1119	x2 = 0.2208	x2 = 0.327	x2 = 0.4305	x2 = 0.5313	x2 = 0.6297	x2 = 0.7257	x2 = 0.8193	x2 = 0.9107
298.15 K	11.14 ± 0.82	8.918 ± 0.68	7.131 ± 0.57	5.694 ± 0.48	4.541 ± 0.4	3.617 ± 0.32	2.884 ± 0.26	2.319 ± 0.21	1.88 ± 0.17
308.15 K	6.522 ± 0.53	5.57 ± 0.47	4.738 ± 0.41	4.049 ± 0.36	3.417 ± 0.3	2.851 ± 0.26	2.364 ± 0.21	1.922 ± 0.18	1.517 ± 0.14
318.15 K	5.117 ± 0.44	4.435 ± 0.39	3.835 ± 0.34	3.299 ± 0.29	2.808 ± 0.25	2.362 ± 0.21	1.987 ± 0.18	1.643 ± 0.15	1.256 ± 0.12

Cc1cccc(C)c1 + C1COCCO1
Settings	viscosity [mPa·s]
298.15 K, 101 kPa, x2 = 0.7182	1.005 ± 0.021

Cc1cccc(C)c1 + ClC(Cl)Cl
298.15 K, 101 kPa
Settings	viscosity [mPa·s]
x2 = 0.2254	0.5977 ± 0.0075
x2 = 0.4357	0.6026 ± 0.0076
x2 = 0.4615	0.6004 ± 0.0076
x2 = 0.5258	0.5981 ± 0.0075
x2 = 0.5786	0.5938 ± 0.0075
x2 = 0.6284	0.593 ± 0.0075
x2 = 0.6945	0.5876 ± 0.0074
x2 = 0.7272	0.5844 ± 0.0074

Cc1ccc(O)cc1 + c1ccccc1
308.15 K, 101 kPa
Settings	viscosity [mPa·s]
x1 = 0.0751	0.6025 ± 0.0052
x1 = 0.1778	0.749 ± 0.0063
x1 = 0.292	0.9762 ± 0.008
x1 = 0.4109	1.327 ± 0.011
x1 = 0.532	1.87 ± 0.015
x1 = 0.6653	2.706 ± 0.021
x1 = 0.7851	4.175 ± 0.031
x1 = 0.8374	4.963 ± 0.037
x1 = 0.9459	7.462 ± 0.051

NCCCO + C1COCCO1
viscosity [mPa·s], 101 kPa
Settings	x1 = 0.1197	x1 = 0.2269	x1 = 0.3332	x1 = 0.4339	x1 = 0.5403	x1 = 0.6385	x1 = 0.7328	x1 = 0.8244	x1 = 0.9072
298.15 K	1.419 ± 0.026	1.847 ± 0.033	2.619 ± 0.047	3.465 ± 0.062	4.883 ± 0.088	6.97 ± 0.12	10.21 ± 0.18	15 ± 0.27	20.98 ± 0.37
303.15 K	1.294 ± 0.023	1.654 ± 0.03	2.311 ± 0.042	3.05 ± 0.055	4.251 ± 0.076	5.966 ± 0.11	8.411 ± 0.15	12.14 ± 0.22	16.7 ± 0.3
308.15 K	1.188 ± 0.022	1.488 ± 0.027	2.037 ± 0.037	2.674 ± 0.048	3.624 ± 0.065	4.916 ± 0.088	6.868 ± 0.12	9.516 ± 0.17	13.47 ± 0.24

Cc1ccc(O)cc1 + C1CCCCC1
viscosity [mPa·s]
Settings	101 kPa	101.33 kPa
303.15 K, x2 = 0.1014	7.352 ± 0.11	7.352 ± 0.2
303.15 K, x2 = 0.1683	5.44 ± 0.081	5.44 ± 0.14
303.15 K, x2 = 0.3021	4.004 ± 0.06	4.004 ± 0.11
303.15 K, x2 = 0.3949	2.988 ± 0.045	2.988 ± 0.078
303.15 K, x2 = 0.5007	2.25 ± 0.034	2.25 ± 0.059
303.15 K, x2 = 0.6007	1.732 ± 0.026	1.732 ± 0.045
303.15 K, x2 = 0.7004	1.35 ± 0.02	1.35 ± 0.035
303.15 K, x2 = 0.7973	1.11 ± 0.017	1.1 ± 0.029
303.15 K, x2 = 0.8999	0.909 ± 0.014	0.909 ± 0.024
308.15 K, x1 = 0.0725	0.8571 ± 0.007	–
308.15 K, x1 = 0.2007	1.086 ± 0.0087	–
308.15 K, x1 = 0.3167	1.393 ± 0.011	–
308.15 K, x1 = 0.3977	1.673 ± 0.013	–
308.15 K, x1 = 0.5218	2.252 ± 0.017	–
308.15 K, x1 = 0.6527	3.175 ± 0.024	–
308.15 K, x1 = 0.7637	4.421 ± 0.033	–
308.15 K, x1 = 0.8681	6.119 ± 0.043	–
308.15 K, x1 = 0.9441	7.786 ± 0.053	–

ClC(Cl)(Cl)c1ccccc1 + CC(Cl)(Cl)Cl
298.15 K, 101.33 kPa
Settings	viscosity [mPa·s]
x2 = 0.157	1.93 ± 0.018
x2 = 0.295	1.72 ± 0.016
x2 = 0.423	1.532 ± 0.014
x2 = 0.54	1.367 ± 0.013
x2 = 0.647	1.222 ± 0.012
x2 = 0.746	1.096 ± 0.011
x2 = 0.837	0.9829 ± 0.0096
x2 = 0.921	0.8849 ± 0.0088

Nc1ccccc1Cl + CCCCO
viscosity [mPa·s], 101 kPa
Settings	x1 = 0.0883	x1 = 0.1789	x1 = 0.2719	x1 = 0.3675	x1 = 0.4656	x1 = 0.5666	x1 = 0.6703	x1 = 0.7771	x1 = 0.8869
303.15 K	2.47 ± 0.54	2.66 ± 0.58	2.83 ± 0.62	3 ± 0.65	3.16 ± 0.69	3.31 ± 0.72	3.44 ± 0.75	3.57 ± 0.78	3.69 ± 0.8
308.15 K	2.21 ± 0.48	2.39 ± 0.52	2.55 ± 0.55	2.71 ± 0.59	2.85 ± 0.62	2.98 ± 0.65	3.1 ± 0.67	3.22 ± 0.7	3.32 ± 0.72
313.15 K	1.98 ± 0.43	2.16 ± 0.47	2.31 ± 0.5	2.45 ± 0.53	2.58 ± 0.56	2.7 ± 0.59	2.82 ± 0.61	2.92 ± 0.63	3 ± 0.65
318.15 K	1.79 ± 0.39	1.96 ± 0.43	2.1 ± 0.46	2.23 ± 0.48	2.35 ± 0.51	2.46 ± 0.53	2.57 ± 0.56	2.67 ± 0.58	2.74 ± 0.6

Cc1ccc(O)cc1 + Oc1ccccc1
298.15 K, 101 kPa
Settings	viscosity [mPa·s]
x2 = 0.1598	13.27 ± 0.21
x2 = 0.3191	12.18 ± 0.19
x2 = 0.3851	11.75 ± 0.18
x2 = 0.5218	10.99 ± 0.17
x2 = 0.6385	10.42 ± 0.16
x2 = 0.7587	9.835 ± 0.14
x2 = 0.8783	9.463 ± 0.14

O=S1(=O)CCCC1 + CCCCCO
viscosity [mPa·s], 101 kPa
Settings	x1 = 0.1119	x1 = 0.2324	x1 = 0.3323	x1 = 0.4328	x1 = 0.5236	x1 = 0.6267	x1 = 0.7208	x1 = 0.8145	x1 = 0.9043
303.15 K	2.686 ± 0.031	2.749 ± 0.03	2.951 ± 0.033	3.218 ± 0.037	3.489 ± 0.041	3.956 ± 0.048	4.594 ± 0.057	5.618 ± 0.072	7.273 ± 0.097
308.15 K	2.366 ± 0.025	2.416 ± 0.026	2.578 ± 0.029	2.807 ± 0.032	3.082 ± 0.036	3.491 ± 0.041	4.077 ± 0.049	4.986 ± 0.062	6.441 ± 0.081
313.15 K	2.096 ± 0.021	2.14 ± 0.023	2.278 ± 0.025	2.479 ± 0.028	2.729 ± 0.032	3.111 ± 0.036	3.644 ± 0.043	4.454 ± 0.053	5.735 ± 0.069
